Measurements published in US5026694A, “Platinum complexes with one radiosensitizing ligand” (priority 1989, dated 1991).
Where two headings read alike, the source gives them in different places.

What was measured:
[1] = tested on: L1210 cells, cDDP resistant line; assay: Toxicity in cisDDP-resistant L1210 cells (cross-resistance); format: cell-based; settings: for IC50: L1210, cDDP resistant line, read-out: ID50 (the source's name)
From the text: (§1) Patients become resistant to cisplatin (cisDDP) and to many related drugs.

[2] = tested on: cancer; settings: cited from earlier work
[3] = tested on: plasmid pSV2-gpt DNA; assay: Binding to DNA by inhibition of restriction enzyme (BamHI) cleavage of plasmid DNA; format: biochemical; set-up: inhibition of BamHI cleavage / inhibition of cleavage with BamHI: unit of the concentration uncertain
Experimental: The ability of the invention compounds to bind DNA was tested using an assay which is based on inhibition of the ability of restriction enzymes to cleave the complexed DNA. The substrate in the assay was the plasmid pSV2-gpt (Mulligan, R., et al Science (1980) 209:1422-1427). After growth in E. coli. this 5.2 kb plasmid was extracted and linearized using PvuII. Cleavage of the extracted linearized segment by BamHI or EcoRI results in two fragments per enzyme. Inhibition of this cleavage by test compounds provides an assay method for binding of the test compounds.
In the assay, DNA (20 mg/ml) in 100 mM Tris-HCl, 1 mM EDTA, pH 8, was treated with the test compounds at approximately 100 mM for 1 hr at 37° C. Unbound drug was then removed using a G-50 Sephadex spin column (Pharmacia).
To 30 mM of the treated DNA, 23.5 ml of a buffer solution containing 0.33 M Tris-acetate, pH 7.9, 0.66 M potassium acetate, 0.10 M dithiothreitol, and 1 mg/ml BSA, along with 10 units of enzyme, were added. Enzyme activity was stopped using 1 ml 0.5 M EDTA after 30 min at 37° C. Tracking 0.25% bromophenol blue, 0.25% xylene cyanol in 30% glycerol water) was added, and 10 ml of the resulting solution loaded onto a 1% agarose gel made with E buffer (0.04 M Tris, 5 mM sodium acetate; 1 mM EDTA, pH 7.8) and subjected to horizontal electrophoresis. The slab gel was stained with aqueous ethidium bromide solution (1 ng/ml) and photographed under UV light.
Inhibition of the restriction enzyme cleavage was assessed qualitatively by noting the relative proportion of bands, or quantitatively by analyzing densitometric scans of the negatives of the recorded pictures.

[4] = tested on: CHO cells; assay: Radiosensitization of CHO cells (enhancement ratio); format: cell-based, Chinese hamster; settings: Table 1; 10 mmol/dm^3
Experimental: Radiosensitization of CHO cells was determined as described by Moore, B. A., et al, sucra, at 4° C., except that the cells were incubated with complex for 1 hr at 37° C. to allow binding to DNA prior to radiation. A Picker X-ray source (250 kVp, 1.7 mm Cu) was used. As with the toxicity studies, cells were carried, irradiated, and plated in MEM a medium with 10% fetal calf serum, and plating efficiencies were determined on the seventh day after plating. Enhancement ratios (ER) were calculated from the doses required to reduce survival to 1%.

[5] = tested on: Chinese hamster ovary (CHO) cells; assay: Toxicity in hypoxic and aerated CHO cells (plating efficiency/survival); format: cell-based; settings: for approximate order of hypoxic toxicity of platinum complexes: hypoxia
Experimental: The toxicity of the invention compounds with respect to Chinese hamster ovary (CHO) cells was compared in air and in nitrogen induced hypoxia as described by Moore, B. A., et al, Radiation Research (1976) 67:459-478. The radiosensitizing ligands, or cis or transdichlorodiamine platinum II (DDP) or the . bisubstituted platinum complexes, PtCl2 (L)2, were used as controls.
The cells were carried in MEM a medium with 10% fetal calf serum, and plating efficiencies were determined on the seventh day after plating.
In similar experiments at 100 mM/dm^3, MISO and trans-[PtCl2 (miso)2 ] show no toxicity. Survival rates for trans-DDP and monoammine were 0.2 and 0.1 respectively.
Using 100 mM levels, mono-6NQ caused plating efficiency to drop to 0 after an hour, while 6NQ had no effect after 3 hours.

[6] = tested on: L1210 cells, cDDP sensitive line; assay: Toxicity in cisDDP-sensitive L1210 cells; format: cell-based; settings: read-out: ID50 (the source's name)
From the text: as §1

[7] = tested on: DNA of CHO cells; assay: Platinum bound to DNA extracted from whole CHO cells, atomic absorption; format: cell-based, Chinese hamster; set-up: dose or concentration left out as unconfirmed; settings: 1-2 hr exposure
From the text: Though the results of this assay were erratic they establish that the Pt complexes cross cell membranes and bind to DNA in mammalian cells.

[8] = tested on: KHT tumor model; settings: 200 mg/kg, 0.5 or 1 hour prior to X-irradiation; FIG. 6
[9] = tested on: hypoxic cells; settings: Teicher et al; cited from earlier work

Row | Compound | IC50 [1] | Ratio (ID50 cDDP resistant/cDDP sensitive) ([1]; L1210 cells) | effectiveness in sensitive versus resistant cells ([1]; more effective in "sensitive" cells) | antineoplastic activity ([2]; literature, 1969) | usefulness in treatment of cancer ([2]; testicular cancer versus other sites) | inhibition of BamHI cleavage ([3]; 40 (unit uncertain)) | binding to DNA as indicated by enzyme inhibition ([3]; 1 hr at 37° C.) | ER [4] | toxicity compared with the compounds of the invention ([5]; 100 mM/dm^3 experiments) | approximate order of hypoxic toxicity of platinum complexes [5] | IC50 [6] | platinum bound to the extracted DNA [7] | radiosensitization in vivo [8] | toxicity compared with other isomer ([5]; 100 mM/dm^3, FIG. 1) | IC50 ([6]; listed as trans mono MISO) | killing of hypoxic cells / toxicity toward oxygenated cells [9]
1 | N.N.[Cl][Pt][Cl] [cis-DDP, cis[PtCl2 (NH3)2]] | 5 mM | 50 | 50 × | shown to have antineoplastic activity | useful in the treatment of testicular cancer, but less so in treatment of cancers at other sites | 30% | binds much more strongly than the monoammine | 1.3 | somewhat more toxic than the compounds of the invention | cis-DDP ff trans-mono-MISO f monoammine Z cis-mono-MISO f trans-DDP f mono-METRO Z mono-NI f mono-ANT | 0.1 mM | 6 ng Pt/10^6 cells | – | – | – | –
2 | COCC(O)Cn1cc[n+]([Pt-2]([NH3+])([Cl])[Cl])c1[N+](=O)[O-] (stereo not drawn) [trans-mono-MISO, PtCl2 (NH3) (misonidazole)] | 18.6 mM | – | – | – | – | – | – | – | – | cis-DDP ff trans-mono-MISO f monoammine Z cis-mono-MISO f trans-DDP f mono-METRO Z mono-NI f mono-ANT | – | – | enhance the effect of the X-rays | trans isomer is more toxic than cis | 6.5 mM | –
3 | mono-substituted platinum complex of 1,2-diamino-4-nitrobenzene [Plato] | – | – | – | – | – | – | – | – | – | – | – | – | – | – | – | high capacity for killing of hypoxic cells and less toxicity toward oxygenated cells
